In ChEMBL document CHEMBL1156829 (Proc Natl Acad Sci U S A, 2008):

Columns and labels:
Plasmodium falciparum [1] = test: NOVARTIS: Inhibition of Plasmodium falciparum 3D7 (drug-susceptible) proliferation in erythrocyte-based infection assay; assay type: functional, organism-based; settings: Plasmodium falciparum, 3D7
[2] = NOVARTIS: Cytotoxicity against human hepatocellular carcinoma cell line (Huh7); assay type: toxicity, cell-based, Huh-7; settings: Huh7 cells (hepatocellular carcinoma cell line)
Plasmodium falciparum [3] = test: NOVARTIS: Inhibition of Plasmodium falciparum W2 (drug-resistant) proliferation in erythrocyte-based infection assay; assay type: functional, organism-based; settings: Plasmodium falciparum, W2; read-out: EC50

| Structure (SMILES) | EC50 (Plasmodium falciparum [1]) | CC50 [2] | EC50 (Plasmodium falciparum [3]) |
| --- | --- | --- | --- |
| CC(=O)Nc1ccc(Oc2ccc(C(c3ccccc3)(c3ccccc3)c3ccc(Oc4ccc(NC(C)=O)cc4)cc3)cc2)cc1 | 360 nM | > 10000 nM | 747 nM |
| N=C(N)c1ccc(OCCCOc2ccc(C(=N)N)cc2)cc1 | 75.5 nM | > 6250 nM | 59.5 nM |
| COc1ccc(C2C(C(=O)Nc3cc(Cl)c(OC)cc3OC)c3ccccc3C(=O)N2C)cc1 (configuration not stated) | 378 nM | > 100000 nM | 333 nM |
| COCCCNC(=O)c1cc(NC(=O)CCCCl)ccc1N1CCc2ccccc2C1 | 331 nM | 1130 nM | 30.4 nM |
| COC(=O)C1=C(OC)C(=O)OC12C=CC(=O)C=C2 | 2220 nM | 2520 nM | 423 nM |
| Cc1ccc(C(=O)NCCNC(=O)CN2CCOCC2)cc1 | > 671 nM | > 10000 nM | > 1250 nM |
| O=C(Nc1ccc(Nc2cc([N+](=O)[O-])ccc2O)c2c1C(=O)c1ccccc1C2=O)c1ccccc1 | > 1250 nM | > 10000 nM | > 901 nM |
| COc1ccc(C(=O)/C(C#N)=C/NC2CCN(Cc3ccccc3)CC2)cc1 | 256 nM | > 10000 nM | > 1580 nM |
| O=C(Nc1ccccc1O)c1ccc(Cl)cc1 | 3260 nM | 36200 nM | 1090 nM |
| COc1ccccc1CNC(=O)CCn1c(=O)[nH]c2ccccc2c1=O | 537 nM | > 10000 nM | 133 nM |
| Cc1ccc(NC(=O)c2cc(C(=O)c3cc(Cl)ccc3O)cn(-c3ccc(C)cc3C)c2=O)c(C)c1 | 934 nM | 59000 nM | 885 nM |
| CCc1ccc(CN2CCC(O)(c3ccc4oc(C(=O)Nc5ccc6c(c5)OCO6)cc4c3)CC2)cc1 | 359 nM | 10300 nM | 460 nM |
| COc1ccc(NC(=O)C2c3ccccc3C(=O)N(CC(C)C)C2c2cccs2)cc1OC (configuration not stated) | 76 nM | > 100000 nM | 68.8 nM |
| CC1CC2=C(CC1CNCCCN(C)C)C(C)(C)CCC2 (configuration not stated) | 250 nM | > 10000 nM | 844 nM |
| COc1cc2c(cc1OC)-c1cc3ccc4c(c3c[n+]1CC2)OCO4 | 103 nM | > 6250 nM | 233 nM |
| O=C(Nc1ccc(-c2nc3cc(NC(=O)c4ccc(Br)o4)ccc3[nH]2)cc1)c1ccc(Br)o1 | 294 nM | 2250 nM | 709 nM |
| CCOc1ccc(-c2cc(C)[n+](CCO)c(-c3ccc(OCC)cc3)c2)cc1 | 1080 nM | > 100000 nM | 352 nM |
| CCN1CCN(c2cc(C)c3cc(NC(=O)C=Cc4cccc(Cl)c4)ccc3n2)CC1 | 824 nM | 61400 nM | 1260 nM |
| CCOC(=O)c1cnc2ccc(OC)cc2c1Nc1ccc(N2CCN(C)CC2)cc1 | 1090 nM | > 10000 nM | > 1700 nM |
| CCC(c1nc2ccccc2c(=O)n1-c1ccccc1OC)N(CCc1ccccc1)C(=O)c1cccc(C(F)(F)F)c1 (configuration not stated) | 919 nM | > 10000 nM | 118 nM |
| CCCCc1ccc(C(=O)Oc2ccccc2-c2nc3cc(C)ccn3c2NC(C)(C)CC(C)(C)C)cc1 | 616 nM | > 10000 nM | 107 nM |
| Cc1cccc(NC(=O)/C(C#N)=C/c2ccc(C)o2)c1 | > 1250 nM | > 10000 nM | > 934 nM |
| CCC(=O)N1CCc2cc(Br)cc(S(=O)(=O)N3CC(C)CC(C)C3)c21 (configuration not stated) | 1970 nM | > 100000 nM | 1160 nM |

| Structure (SMILES) | EC50 (Plasmodium falciparum [1]) | CC50 [2] | EC50 (Plasmodium falciparum [3]) |
| --- | --- | --- | --- |
| CCC(=O)NNc1cc(N2CCCC2)nc(N2CCCC2)n1 | 790 nM | > 100000 nM | 760 nM |
| COCCn1nnnc1C(c1cc2cc3c(cc2[nH]c1=O)OCCO3)N1CCC(O)CC1 (configuration not stated) | > 1250 nM | > 10000 nM | 974 nM |
| Cc1ccc(Cn2c(N3CCC(C(=O)NCc4cccs4)CC3)nc3ccccc32)cc1 | 529 nM | > 100000 nM | 271 nM |
| Cc1nc(C(C)N(C)Cc2c(C(=O)N3CCCCCCC3)nc3sccn23)c(C)s1 (configuration not stated) | > 7030 nM | > 100000 nM | 825 nM |
| O[C@@H](c1cc(C(F)(F)F)nc2c(C(F)(F)F)cccc12)[C@H]1CCCCN1 | 51.7 nM | > 6250 nM | 2.37 nM |
| O=C(NCc1ccco1)c1ccc(OC2CCN(Cc3ccncc3)CC2)c(Cl)c1 | 683 nM | > 100000 nM | 427 nM |
| CC(NS(=O)(=O)c1ccccc1)C(=O)NC1CCCC1 (configuration not stated) | > 4320 nM | > 100000 nM | 4620 nM |
| COc1ccc(CN2CCC(Sc3ncccn3)CC2)cc1 | > 1440 nM | 702 nM | 950 nM |
| O=[N+]([O-])c1cccc(Cl)c1N1CCN(S(=O)(=O)Cc2ccccc2)CC1 | > 1160 nM | > 10000 nM | 1300 nM |
| CCOc1ccc(N2C(=O)C3C4CC(C(Br)C4Br)C3C2=O)cc1 (configuration not stated) | > 12500 nM | > 72500 nM | 441 nM |
| C=C[C@H]1CN2CC[C@H]1C[C@H]2[C@H](OC(=O)CCC)c1ccnc2ccccc12 | 335 nM | > 10000 nM | 286 nM |
| CN(CCCNc1ccnc2cc(Cl)ccc12)C(=O)c1cccc(C(F)(F)F)c1 | 85.1 nM | > 2550 nM | 278 nM |
| O=C(Nc1cc(Cl)cc(Cl)c1)Nc1cccc(C(F)(F)F)c1 | 13.8 nM | 14900 nM | > 12500 nM |
| Fc1ccc(C(CCNc2ncnc3c2[nH]c2ccccc23)c2ccco2)cc1 (configuration not stated) | 216 nM | 20200 nM | 419 nM |
| COc1cccc(NC(=O)c2sc3ncn(CC(=O)N4CCN(c5ccccn5)CC4)c(=O)c3c2C)c1 | > 12500 nM | > 100000 nM | 1240 nM |
| CNC(=O)c1nn(C)c2c1CC(NCC1CCCCC1)CC2 (configuration not stated) | > 12500 nM | > 100000 nM | 2830 nM |
| COc1ccc(CCNc2nc(NCCCN3CCCCC3C)ncc2C(=O)NCC(C)C)cc1OC (configuration not stated) | 1160 nM | > 10000 nM | > 706 nM |
| OC(CNC1CCCCC1)Cn1c2ccccc2c2ccccc21 (configuration not stated) | 483 nM | 18000 nM | 198 nM |
| CCN(CC)S(=O)(=O)c1ccc(C(=O)c2c(C)c(C(=O)C(F)(F)F)c3ccccn23)cc1 | 3150 nM | > 100000 nM | 2020 nM |
| Cc1ccc(NC(=O)CN2CCN(c3ccccn3)CC2)cc1F | 2080 nM | > 10000 nM | > 1540 nM |
| CCOC(=O)c1c(S(=O)(=O)Nc2ccc(C(C)(C)C)cc2)c(-c2ccccc2)n(-c2ccccc2)c1C | 696 nM | > 100000 nM | 425 nM |
| COc1ccc(OC)c(-c2ccc(O)c(CNCC3CC4C=CC3C43CC3)c2)c1 (configuration not stated) | 350 nM | 20600 nM | 39.8 nM |
| CCCC1=[N+](CC(=O)c2ccc(C)cc2)CCn2c(C)ccc21 | 792 nM | > 10000 nM | > 618 nM |

| Structure (SMILES) | EC50 (Plasmodium falciparum [1]) | CC50 [2] | EC50 (Plasmodium falciparum [3]) |
| --- | --- | --- | --- |
| O=C(NN1CCOCC1)c1ccc(Br)cc1 | > 1510 nM | > 10000 nM | > 997 nM |
| COc1ccc(CC(=O)N(CCCC(C)Nc2cc(OC)cc3cccnc23)Cc2ccc(OC)c(OC)c2)cc1 (configuration not stated) | 1200 nM | > 10800 nM | 666 nM |
| CC(C)CCNCC(O)Cn1c2ccc(Cl)cc2c2cc(Cl)ccc21 (configuration not stated) | 192 nM | 20600 nM | 96.6 nM |
| COc1ccc(C2CC(=O)C3=C(C2)NC(C)=C(C(=O)OC(C)C)C3c2ccccc2Br)cc1OC (configuration not stated) | 13.7 nM | 23300 nM | 7.84 nM |
| Cc1cc(I)ccc1NC(=O)CNC(=O)OCc1ccccc1 | > 12500 nM | > 100000 nM | 1280 nM |
| COC(=O)C1=C(C(=O)OC)SC(=C2C(=S)C(C)(C)Nc3cc(C)ccc32)S1 | > 1140 nM | > 10000 nM | > 1250 nM |
| CC(Cl)=CC[N+]1(CC#Cc2cccc3ccccc23)CCOCC1 | 1160 nM | > 100000 nM | 1000 nM |
| CCC(c1nc2cc(Cl)ccc2c(=O)n1CC)N(CC)C(=O)c1ccc2ccccc2c1 (configuration not stated) | > 1220 nM | > 10000 nM | 1230 nM |
| CC(C)(C)c1ccc(/C=C/C(=O)NCc2ccco2)cc1 | 792 nM | > 10000 nM | 639 nM |
| COc1ccc(OCC(=O)Nc2c(C)n(C)n(-c3ccccc3)c2=O)cc1 | > 1250 nM | > 10000 nM | > 1160 nM |
| CN(C)c1ccc(C2N(C)c3ccccc3N2C)cc1 | 913 nM | > 100000 nM | 551 nM |
| N=c1c2c(n(Cc3ccccc3Cl)c3c1CCC3)CCCC2 | 222 nM | > 100000 nM | 174 nM |
| O=C(NN=Cc1ccncc1)c1cc(-c2cccc([N+](=O)[O-])c2)[nH]n1 | > 8130 nM | > 100000 nM | 2120 nM |
| O=C1c2cccc3cccc(c23)C(=O)N1c1ccc(-c2c3ccccc3c(-c3ccc(N4C(=O)c5cccc6cccc(c56)C4=O)cc3)c3ccccc23)cc1 | 1050 nM | > 10000 nM | 1000 nM |
| COc1cccc(-c2ccc(O)c(CN3CCCCC3)c2)n1 | 469 nM | > 95800 nM | 54.7 nM |
| CC(C)CNC(=O)c1ccc(OC2CCN(CC3CCCCC3)CC2)c(Cl)c1 | 326 nM | 14800 nM | 130 nM |
| Cc1nc(NC(=N)N)nc2c(C)cccc12 | 301 nM | 16400 nM | 443 nM |
| COC(=O)c1cn([C@H]2C[C@@H](C(=O)NCc3ccc(OC)cc3)N(Cc3ccsc3)C2)nn1 | > 1710 nM | > 7380 nM | 200 nM |
| CCCCCCCCC(=O)N(C)CCCNc1ccnc2cc(Cl)ccc12 | 321 nM | > 10700 nM | 196 nM |
| COc1cccc(-c2ccc(O)c(CN(C)C3CCCCC3)c2)n1 | 1150 nM | > 13000 nM | 90.3 nM |
| Cn1c(C(OCC(=O)N2CCN(Cc3ccccc3)CC2)c2cccnc2)cc2ccccc21 (configuration not stated) | 2250 nM | 38100 nM | 1100 nM |
| COc1ccc(OC)c(-c2ccc(O)c(CN3CCCC(C)C3)c2)c1 (configuration not stated) | 131 nM | 61000 nM | 94.5 nM |
| CCN(CC)CCCC(C)Nc1c2ccc(Cl)cc2nc2ccc(OC)nc12 (configuration not stated) | 744 nM | > 6250 nM | 746 nM |
